Results: PMC7483475, “The Sporomusa type Nfn is a novel type of electron-bifurcating transhydrogenase that links the redox pools in acetogenic bacteria” (Scientific Reports, 2020)

Legend:
[1] = target: T1, Stn complex (Sporomusa type Nfn; StnABC) (Sporomusa ovata, UniProt A0A0U1KYI6+A0A0U1KYM9); assay: protein precipitation and thin layer chromatography of released flavin; format: binding; conditions: bound flavin, loosely bound; FAD and FMN present in purification buffers
T1 construct: gene SpAn4DRAFT_2936; native purification from S. ovata cytoplasm, untagged; ~840 kDa tetrameric heterotrimer; identified by MALDI-TOF-MS; with Sporomusa type Nfn subunit A (NuoE-like, HydC/HndA-like [2Fe-2S] subunit)
T1 sequence (A0A0U1KYM9 1-584): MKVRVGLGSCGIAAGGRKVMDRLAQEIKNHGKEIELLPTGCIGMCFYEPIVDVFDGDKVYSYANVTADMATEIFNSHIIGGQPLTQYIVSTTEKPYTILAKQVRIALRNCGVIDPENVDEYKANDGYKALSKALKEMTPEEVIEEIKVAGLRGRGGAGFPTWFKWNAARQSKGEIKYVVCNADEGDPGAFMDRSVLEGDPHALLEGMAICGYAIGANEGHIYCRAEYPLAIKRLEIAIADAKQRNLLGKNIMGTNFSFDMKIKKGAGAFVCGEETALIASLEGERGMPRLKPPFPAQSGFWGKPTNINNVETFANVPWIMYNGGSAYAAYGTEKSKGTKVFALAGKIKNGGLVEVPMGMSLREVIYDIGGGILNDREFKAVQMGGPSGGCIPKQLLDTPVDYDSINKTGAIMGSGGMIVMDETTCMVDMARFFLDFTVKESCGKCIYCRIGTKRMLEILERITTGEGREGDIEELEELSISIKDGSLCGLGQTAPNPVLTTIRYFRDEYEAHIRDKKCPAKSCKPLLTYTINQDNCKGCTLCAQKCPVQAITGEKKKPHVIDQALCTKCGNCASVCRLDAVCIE
T1 sequence (A0A0U1KYI6 1-1172): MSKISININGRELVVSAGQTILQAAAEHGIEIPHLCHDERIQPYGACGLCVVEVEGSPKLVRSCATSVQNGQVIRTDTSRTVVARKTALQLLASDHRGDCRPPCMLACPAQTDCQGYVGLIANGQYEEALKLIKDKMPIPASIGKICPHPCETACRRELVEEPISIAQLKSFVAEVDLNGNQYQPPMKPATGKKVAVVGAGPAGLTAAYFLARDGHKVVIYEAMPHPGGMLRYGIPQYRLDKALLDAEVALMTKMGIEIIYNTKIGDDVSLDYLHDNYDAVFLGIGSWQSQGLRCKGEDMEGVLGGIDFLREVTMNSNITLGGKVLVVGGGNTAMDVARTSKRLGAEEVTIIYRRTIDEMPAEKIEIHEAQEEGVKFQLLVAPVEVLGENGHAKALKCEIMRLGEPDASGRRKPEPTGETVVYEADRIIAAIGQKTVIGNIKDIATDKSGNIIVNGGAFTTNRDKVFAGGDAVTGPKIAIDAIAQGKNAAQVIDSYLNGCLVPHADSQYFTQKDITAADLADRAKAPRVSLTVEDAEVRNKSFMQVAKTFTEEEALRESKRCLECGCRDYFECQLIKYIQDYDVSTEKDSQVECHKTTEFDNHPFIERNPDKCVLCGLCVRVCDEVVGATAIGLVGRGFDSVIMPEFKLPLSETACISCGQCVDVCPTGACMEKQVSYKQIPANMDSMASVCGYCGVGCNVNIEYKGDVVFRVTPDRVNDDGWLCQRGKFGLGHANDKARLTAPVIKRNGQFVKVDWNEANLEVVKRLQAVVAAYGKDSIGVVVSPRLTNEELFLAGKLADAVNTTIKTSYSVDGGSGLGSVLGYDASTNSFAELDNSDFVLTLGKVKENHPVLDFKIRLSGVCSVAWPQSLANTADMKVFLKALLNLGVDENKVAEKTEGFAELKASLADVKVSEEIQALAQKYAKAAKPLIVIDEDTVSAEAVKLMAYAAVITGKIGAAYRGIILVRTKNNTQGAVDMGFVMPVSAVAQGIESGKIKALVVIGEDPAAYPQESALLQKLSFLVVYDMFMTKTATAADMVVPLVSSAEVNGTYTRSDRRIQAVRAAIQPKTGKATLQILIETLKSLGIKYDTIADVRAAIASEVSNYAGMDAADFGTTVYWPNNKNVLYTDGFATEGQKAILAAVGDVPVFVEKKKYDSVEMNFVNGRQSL
T1 sequence (A0A0U1KYW8 1-178 partner): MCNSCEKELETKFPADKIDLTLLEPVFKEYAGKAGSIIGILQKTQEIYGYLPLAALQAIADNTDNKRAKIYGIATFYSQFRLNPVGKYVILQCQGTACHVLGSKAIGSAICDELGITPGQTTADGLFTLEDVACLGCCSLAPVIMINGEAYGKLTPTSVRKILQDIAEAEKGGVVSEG

StnC (strep-tagged) [2] = target: T2, StnC (strep-tagged) (Sporomusa ovata, UniProt A0A0U1KYI6); assay: thin layer chromatography of bound flavin; format: binding; conditions: bound flavin of recombinant StnC
T2 construct: gene SpAn4DRAFT_2937; isolated subunit, N-terminal Strep-tag kept, E. coli BL21 (DE3) delta-iscR; translated from primers: N-term MWSHPQFEKSA-SKISININGR, C-term NFVNGRQSL
T2 sequence (A0A0U1KYI6 2-1172): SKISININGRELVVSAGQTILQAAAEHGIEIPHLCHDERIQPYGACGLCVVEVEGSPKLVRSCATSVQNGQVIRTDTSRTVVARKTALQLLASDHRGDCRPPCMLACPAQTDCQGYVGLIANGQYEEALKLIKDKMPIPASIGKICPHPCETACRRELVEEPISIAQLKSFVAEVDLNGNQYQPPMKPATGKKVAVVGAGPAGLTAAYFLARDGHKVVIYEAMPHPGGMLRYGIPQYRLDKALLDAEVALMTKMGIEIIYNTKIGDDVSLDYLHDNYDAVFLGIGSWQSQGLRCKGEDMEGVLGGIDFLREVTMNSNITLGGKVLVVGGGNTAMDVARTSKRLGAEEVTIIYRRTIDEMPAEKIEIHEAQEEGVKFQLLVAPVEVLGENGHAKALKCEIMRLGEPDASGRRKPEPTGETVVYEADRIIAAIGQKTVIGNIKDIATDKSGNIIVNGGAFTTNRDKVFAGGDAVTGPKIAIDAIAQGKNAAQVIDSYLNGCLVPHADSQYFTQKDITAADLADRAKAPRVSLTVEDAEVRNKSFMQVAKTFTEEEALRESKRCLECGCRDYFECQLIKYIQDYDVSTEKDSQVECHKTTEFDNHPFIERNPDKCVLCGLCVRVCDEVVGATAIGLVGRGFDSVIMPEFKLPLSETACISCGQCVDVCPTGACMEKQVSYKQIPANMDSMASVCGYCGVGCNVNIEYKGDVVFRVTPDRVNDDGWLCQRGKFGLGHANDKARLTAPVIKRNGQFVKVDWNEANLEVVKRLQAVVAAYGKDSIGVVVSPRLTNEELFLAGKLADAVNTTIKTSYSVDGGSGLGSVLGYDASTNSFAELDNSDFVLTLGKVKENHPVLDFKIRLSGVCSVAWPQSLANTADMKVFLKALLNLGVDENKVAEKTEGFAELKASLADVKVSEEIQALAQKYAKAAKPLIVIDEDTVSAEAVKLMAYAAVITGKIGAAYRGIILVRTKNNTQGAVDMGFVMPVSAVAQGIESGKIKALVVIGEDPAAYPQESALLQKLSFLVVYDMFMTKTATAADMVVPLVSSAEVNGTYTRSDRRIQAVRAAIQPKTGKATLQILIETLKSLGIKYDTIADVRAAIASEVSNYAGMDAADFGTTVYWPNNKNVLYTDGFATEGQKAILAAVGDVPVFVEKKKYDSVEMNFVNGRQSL

StnC (strep-tagged) [3] = target: T2, StnC (strep-tagged); assay: spectrophotometric NADPH-dependent acceptor reduction; format: biochemical; conditions: acceptors methyl viologen, FAD, FMN or ferricyanide; 100 mM Tris/HCl pH 7.5, 20 °C
StnC (strep-tagged) [4] = target: T2, StnC (strep-tagged); assay: spectrophotometric FMN reduction, […] nm; format: biochemical; conditions: electron acceptor, 0.2 mM FMN, 0.25 mM NADPH; 100 mM Tris/HCl pH 7.5, 20 °C
[5] = target: Sporomusa type Nfn (Stn) complex, heterotrimer of StnA, StnB and StnC (Sporomusa ovata); assay: SEC; analytical gel filtration of the purified Stn complex on Superdex 200; heterotrimer to tetramer of heterotrimers

**Q.** `Cc1cc2nc3c(=O)[nH]c(=O)nc-3n(C[C@H](O)[C@H](O)[C@H](O)COP(=O)(O)OP(=O)(O)OC[C@H]3O[C@@H](n4cnc5c(N)ncnc54)[C@H](O)[C@@H]3O)c2cc1C` [FAD] was tested. Which “protein precipitation and thin layer chromatography of released flavin” value [1] did it give?
**A.** FAD was identified to be the only flavin bound

**Q.** And the “thin layer chromatography of bound flavin” value (StnC (strep-tagged) [2])?
**A.** The identity of bound Flavin was elucidated by TLC to be FAD.

**Q.** With `NC(=O)C1=CN([C@@H]2O[C@H](COP(=O)(O)OP(=O)(O)OC[C@H]3O[C@@H](n4cnc5c(N)ncnc54)[C@H](OP(=O)(O)O)[C@@H]3O)[C@@H](O)[C@H]2O)C=CC1` [NADPH] as the molecule, how does the “spectrophotometric NADPH-dependent acceptor reduction” value (StnC (strep-tagged) [3]) read?
**A.** The purified protein exhibited NADPH oxidation with methyl viologen, FAD, FMN and ferricyanide

**Q.** For `Cc1cc2nc3c(=O)[nH]c(=O)nc-3n(C[C@H](O)[C@H](O)[C@H](O)COP(=O)(O)O)c2cc1C` [FMN], which “spectrophotometric FMN reduction, 450 nm” value (StnC (strep-tagged) [4]) is on record?
**A.** The purified protein exhibited NADPH oxidation with methyl viologen, FAD, FMN and ferricyanide

**Q.** How did the stoichiometry N [5] turn out when “Sporomusa type Nfn (Stn) complex, heterotrimer of StnA, StnB and StnC” was run?
**A.** 4
